Measurements: ChEMBL document CHEMBL1137615, “Discovery of orally efficacious tetracyclic metabotropic glutamate receptor 1 (mGluR1) antagonists for the treatment of chronic pain” (J Med Chem, 2007)

Assays:
[1] = molecular target: T1, Metabotropic glutamate receptor 5 (Homo sapiens, UniProt P41594); assay: Displacement of radioligand from human mGluR5b expressed in HEK293 cells at 1 uM; type: cell-based
Target sequence in this assay (P41594 21-1212 limits assumed): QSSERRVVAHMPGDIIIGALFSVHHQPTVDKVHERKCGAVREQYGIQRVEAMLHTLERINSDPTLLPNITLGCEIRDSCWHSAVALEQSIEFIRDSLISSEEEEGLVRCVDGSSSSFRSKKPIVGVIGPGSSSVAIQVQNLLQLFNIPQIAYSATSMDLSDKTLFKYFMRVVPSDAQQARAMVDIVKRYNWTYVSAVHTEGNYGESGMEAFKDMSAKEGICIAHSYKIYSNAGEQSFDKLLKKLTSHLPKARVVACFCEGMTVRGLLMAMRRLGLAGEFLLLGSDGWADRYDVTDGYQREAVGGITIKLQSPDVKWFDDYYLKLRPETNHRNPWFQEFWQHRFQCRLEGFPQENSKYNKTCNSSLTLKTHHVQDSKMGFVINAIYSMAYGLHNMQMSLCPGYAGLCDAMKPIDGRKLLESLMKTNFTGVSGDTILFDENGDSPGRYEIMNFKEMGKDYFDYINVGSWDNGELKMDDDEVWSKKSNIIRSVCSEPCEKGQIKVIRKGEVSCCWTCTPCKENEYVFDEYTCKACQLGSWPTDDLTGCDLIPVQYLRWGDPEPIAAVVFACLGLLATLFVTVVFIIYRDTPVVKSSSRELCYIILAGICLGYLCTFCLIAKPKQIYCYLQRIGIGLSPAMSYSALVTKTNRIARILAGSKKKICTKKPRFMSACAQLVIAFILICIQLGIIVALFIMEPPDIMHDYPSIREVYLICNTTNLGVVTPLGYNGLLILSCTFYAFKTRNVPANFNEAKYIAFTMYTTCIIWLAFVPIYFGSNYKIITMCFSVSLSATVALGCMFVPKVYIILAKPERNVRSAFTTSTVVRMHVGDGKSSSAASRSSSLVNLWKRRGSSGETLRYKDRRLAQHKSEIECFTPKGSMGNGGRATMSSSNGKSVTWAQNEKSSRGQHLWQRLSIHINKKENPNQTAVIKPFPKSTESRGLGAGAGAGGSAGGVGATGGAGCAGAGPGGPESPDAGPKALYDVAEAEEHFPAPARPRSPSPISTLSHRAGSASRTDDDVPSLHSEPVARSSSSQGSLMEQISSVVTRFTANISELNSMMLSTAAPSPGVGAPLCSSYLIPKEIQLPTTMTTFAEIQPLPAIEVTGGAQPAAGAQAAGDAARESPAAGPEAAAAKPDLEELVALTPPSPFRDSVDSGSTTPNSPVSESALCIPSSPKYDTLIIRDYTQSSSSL

[2] = molecular target: Metabotropic glutamate receptor 1 (Rattus norvegicus, UniProt P23385); assay: Displacement of [3H]9-Dimethylamino-3-(4-methoxy-phenyl)-3H-pyrido[3',2':4,5]thieno[3,2-d]pyrimidin-4-one from mGluR1 in rat cerebellum membrane; type: cell membranes
Chain of Metabotropic glutamate receptor 1 (Rattus norvegicus, UniProt P23385) (P23385 whole entry): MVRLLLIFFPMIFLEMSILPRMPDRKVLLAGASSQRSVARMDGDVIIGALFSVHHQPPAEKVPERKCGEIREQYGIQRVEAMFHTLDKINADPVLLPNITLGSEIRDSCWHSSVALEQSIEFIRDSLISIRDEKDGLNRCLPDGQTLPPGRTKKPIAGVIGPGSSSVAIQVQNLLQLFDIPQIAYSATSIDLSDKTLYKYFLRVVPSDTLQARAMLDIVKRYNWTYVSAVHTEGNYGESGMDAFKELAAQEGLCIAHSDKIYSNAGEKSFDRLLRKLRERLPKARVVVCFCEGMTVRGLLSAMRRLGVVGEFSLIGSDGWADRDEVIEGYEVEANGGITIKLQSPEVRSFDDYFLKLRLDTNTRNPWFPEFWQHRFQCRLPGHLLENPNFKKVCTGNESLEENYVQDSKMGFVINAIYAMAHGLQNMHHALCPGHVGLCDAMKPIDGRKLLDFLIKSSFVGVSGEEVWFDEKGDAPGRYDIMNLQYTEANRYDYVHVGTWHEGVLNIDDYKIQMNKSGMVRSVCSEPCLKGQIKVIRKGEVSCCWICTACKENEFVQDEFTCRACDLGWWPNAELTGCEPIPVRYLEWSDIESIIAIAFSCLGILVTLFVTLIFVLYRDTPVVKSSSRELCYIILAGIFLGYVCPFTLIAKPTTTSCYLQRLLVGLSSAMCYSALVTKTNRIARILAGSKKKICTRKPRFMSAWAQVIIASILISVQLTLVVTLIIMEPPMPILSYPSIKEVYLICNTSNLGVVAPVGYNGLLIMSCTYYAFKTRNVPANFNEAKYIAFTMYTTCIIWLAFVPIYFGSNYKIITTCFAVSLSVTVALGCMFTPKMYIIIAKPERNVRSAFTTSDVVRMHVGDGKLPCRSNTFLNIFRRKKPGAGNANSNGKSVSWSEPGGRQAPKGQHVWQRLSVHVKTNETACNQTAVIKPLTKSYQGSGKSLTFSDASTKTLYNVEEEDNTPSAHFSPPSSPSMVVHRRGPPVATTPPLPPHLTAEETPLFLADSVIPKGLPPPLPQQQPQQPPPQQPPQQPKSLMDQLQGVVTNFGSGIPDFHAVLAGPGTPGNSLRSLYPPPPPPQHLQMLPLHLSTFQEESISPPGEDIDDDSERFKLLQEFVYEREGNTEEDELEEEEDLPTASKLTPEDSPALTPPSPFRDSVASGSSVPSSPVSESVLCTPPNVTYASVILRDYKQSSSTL

[3] = molecular target: T1, Metabotropic glutamate receptor 5; assay: Antagonist activity at human mGluR5b expressed in HEK293 cells assessed by measuring intracellular calcium by FLIPR assay; type: functional, cell-based
Target sequence in this assay (P41594 whole entry): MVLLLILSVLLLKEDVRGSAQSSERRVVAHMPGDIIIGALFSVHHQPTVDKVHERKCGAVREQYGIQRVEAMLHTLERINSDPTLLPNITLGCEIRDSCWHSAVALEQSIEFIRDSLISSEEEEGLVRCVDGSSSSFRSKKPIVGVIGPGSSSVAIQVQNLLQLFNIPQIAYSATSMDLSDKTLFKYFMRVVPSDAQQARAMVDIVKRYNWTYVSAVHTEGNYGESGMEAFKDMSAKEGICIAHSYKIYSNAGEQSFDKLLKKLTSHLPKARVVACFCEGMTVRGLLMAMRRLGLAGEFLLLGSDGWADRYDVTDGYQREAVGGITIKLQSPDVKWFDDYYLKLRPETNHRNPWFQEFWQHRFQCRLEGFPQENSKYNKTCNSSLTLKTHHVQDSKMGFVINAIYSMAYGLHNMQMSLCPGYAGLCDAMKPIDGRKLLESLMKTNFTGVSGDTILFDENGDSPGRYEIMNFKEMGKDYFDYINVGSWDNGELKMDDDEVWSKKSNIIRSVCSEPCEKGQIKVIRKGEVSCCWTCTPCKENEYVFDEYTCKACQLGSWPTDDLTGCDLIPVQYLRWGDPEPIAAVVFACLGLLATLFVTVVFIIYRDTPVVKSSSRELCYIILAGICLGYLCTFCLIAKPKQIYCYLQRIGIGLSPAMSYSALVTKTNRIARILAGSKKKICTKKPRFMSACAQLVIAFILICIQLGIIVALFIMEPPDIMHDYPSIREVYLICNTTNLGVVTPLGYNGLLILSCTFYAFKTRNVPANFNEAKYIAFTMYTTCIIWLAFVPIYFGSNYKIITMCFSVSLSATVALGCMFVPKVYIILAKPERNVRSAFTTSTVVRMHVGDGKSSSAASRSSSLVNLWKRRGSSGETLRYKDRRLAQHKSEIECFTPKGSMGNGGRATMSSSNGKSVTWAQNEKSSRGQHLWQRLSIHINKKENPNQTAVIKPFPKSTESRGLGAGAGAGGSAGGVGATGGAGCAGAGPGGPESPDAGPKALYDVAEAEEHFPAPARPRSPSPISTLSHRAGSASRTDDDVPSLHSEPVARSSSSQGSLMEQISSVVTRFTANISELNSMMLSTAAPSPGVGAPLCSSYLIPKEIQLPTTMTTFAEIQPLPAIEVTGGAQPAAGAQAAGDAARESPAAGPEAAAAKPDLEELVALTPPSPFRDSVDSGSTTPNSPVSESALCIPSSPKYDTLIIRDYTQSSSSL

[4] = AUC (0 to 6 hrs) in rat at 10 mg/kg, po by CARRS; type: ADME, organism-based; parameters: time < 6 hr, dose 10 mg/kg, route oral; conditions: plasma
[5] = Tmax in rat at 10 mg/kg, po by CARRS; type: ADME, organism-based; parameters: dose 10 mg/kg, route oral; conditions: in vivo
[6] = Cmax in rat at 10 mg/kg, po by CARRS; type: ADME, organism-based; parameters: dose 10 mg/kg, route oral; conditions: in vivo
[7] = tested on: Rattus norvegicus; assay: Effect on neuropathic pain in SNL rat model assessed as paw withdrawal threshold at 10 mg/kg, po; type: functional
[8] = tested on: Rattus norvegicus; assay: Inhibition of neuropathic pain in SNL rat model at 10 mg/kg, po; type: functional
[9] = molecular target: Metabotropic glutamate receptor 1 (Homo sapiens, UniProt Q13255); assay: Antagonist activity at human mGluR1a expressed in CHO cells assessed by measuring intracellular calcium by FLIPR assay; type: functional, cell-based
Chain of Metabotropic glutamate receptor 1 (Homo sapiens, UniProt Q13255) (Q13255 whole entry): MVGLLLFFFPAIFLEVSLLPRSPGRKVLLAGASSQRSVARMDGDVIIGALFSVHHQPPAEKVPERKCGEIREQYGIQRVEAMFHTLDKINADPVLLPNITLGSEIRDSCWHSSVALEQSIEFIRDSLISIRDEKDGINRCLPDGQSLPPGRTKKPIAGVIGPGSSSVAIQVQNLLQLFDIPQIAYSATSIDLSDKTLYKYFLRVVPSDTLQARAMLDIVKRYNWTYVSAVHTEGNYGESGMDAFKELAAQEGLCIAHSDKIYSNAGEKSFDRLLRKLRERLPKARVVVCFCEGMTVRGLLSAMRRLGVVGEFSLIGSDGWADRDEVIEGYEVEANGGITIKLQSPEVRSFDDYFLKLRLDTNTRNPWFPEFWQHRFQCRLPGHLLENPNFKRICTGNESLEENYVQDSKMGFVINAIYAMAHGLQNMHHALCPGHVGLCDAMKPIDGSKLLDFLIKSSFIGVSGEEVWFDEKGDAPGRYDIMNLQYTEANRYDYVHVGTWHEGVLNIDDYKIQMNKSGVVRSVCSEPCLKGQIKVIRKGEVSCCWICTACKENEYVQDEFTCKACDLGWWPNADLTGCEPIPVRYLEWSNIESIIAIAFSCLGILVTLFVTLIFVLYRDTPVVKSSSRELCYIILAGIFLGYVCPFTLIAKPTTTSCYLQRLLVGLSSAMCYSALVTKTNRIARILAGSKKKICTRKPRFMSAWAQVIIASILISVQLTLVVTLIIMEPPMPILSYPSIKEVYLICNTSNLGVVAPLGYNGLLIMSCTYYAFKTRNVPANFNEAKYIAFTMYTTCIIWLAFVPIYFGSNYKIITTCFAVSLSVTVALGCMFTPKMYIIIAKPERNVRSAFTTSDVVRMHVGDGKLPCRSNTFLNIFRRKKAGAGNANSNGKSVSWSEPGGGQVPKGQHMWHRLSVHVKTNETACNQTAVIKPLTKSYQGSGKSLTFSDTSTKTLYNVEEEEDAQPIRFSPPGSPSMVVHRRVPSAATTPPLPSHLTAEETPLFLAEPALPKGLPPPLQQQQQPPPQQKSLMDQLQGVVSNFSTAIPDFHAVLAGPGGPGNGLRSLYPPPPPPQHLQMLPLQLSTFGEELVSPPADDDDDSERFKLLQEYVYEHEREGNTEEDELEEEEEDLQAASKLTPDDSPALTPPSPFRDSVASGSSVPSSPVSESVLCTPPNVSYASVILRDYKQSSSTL

[10] = tested on: Rattus norvegicus; assay: Effect on neuropathic pain in orally dosed SNL rat model; type: functional; conditions: po

Activity [1] [%]	Ki [2] [nM]	IC50 [3] [nM]	AUC(0-t) at 6 h [4] [µM·h]	Tmax [5] [h]	Cmax [6] [nM]	IC50 [9] [nM]	Structure (SMILES)	Activity [7] [g]	MPE [8] [%]	ED50 [10] [mg/kg]
-12	19.6						O=c1c2sc3ncc4cn[nH]c4c3c2ncn1-c1ccc(Cl)cc1			
	28.6	> 10000	1.32	2	394		COc1ccc(-n2cnc3c(sc4ncc5cc[nH]c5c43)c2=O)cc1	6.6	39	
-8	1000					446	Cc1ccc(-n2cnc3c(sc4ncc5sc(=O)[nH]c5c43)c2=O)cc1			
	16.9	> 1000	0.035	0.5	71		Cc1ccc(-n2cnc3c(sc4ncc5cc[nH]c5c43)c2=O)cc1			
	7.9	10000	1.93	0.5	564	9.5	COc1ccc(-n2cnc3c(sc4nccc(N(C)C)c43)c2=O)cc1	13.2	87	
-2	788					636	CSc1nc2c(cnc3sc4c(=O)n(-c5ccc(C)cc5)cnc4c32)s1			
5	17.8					16.8	Cc1ccc(-n2cnc3c(sc4ncc5cn[nH]c5c43)c2=O)cc1			
-10	1000					541	Cc1ccc(-n2cnc3c(sc4ncc5sc(=S)[nH]c5c43)c2=O)cc1			
	0.4	> 1000	0.366	1	198		O=c1c2sc3ncc4c(c3c2ncn1-c1ccc(Cl)cc1)NCCO4	11.8	73	5.1
-1.7	10.8						O=c1c2sc3ncc4nc[nH]c4c3c2ncn1-c1ccc(Cl)cc1			
	0.2	> 1000	5.19	0.5	1420		C[C@@H]1CNc2c(cnc3sc4c(=O)n(-c5ccc(Cl)cc5)cnc4c23)O1	10.9	68	
						5.9	CNc1c(Br)cnc2sc3c(=O)n(-c4ccc(Cl)cc4)cnc3c12			
	0.6	609					Cc1ccc(-n2cnc3c(sc4ncc5c(c43)NC[C@@H](C)O5)c2=O)cc1			
	0.5	702	0.077	1	70		Cc1ccc(-n2cnc3c(sc4ncc5c(c43)NCCO5)c2=O)cc1			
	1.5	> 1000	8.43	2	2050		C[C@H]1CNc2c(cnc3sc4c(=O)n(-c5ccc(Cl)cc5)cnc4c23)O1	7.7	44	
	1	> 1000	1.56	2	467		COc1ccc(-n2cnc3c(sc4ncc5c(c43)NCCO5)c2=O)cc1	8.5	50	8
1.7	2.4		0.018	0.5	37		O=c1c2sc3ncc4cc[nH]c4c3c2ncn1-c1ccc(Cl)cc1			
0.15	104						Cn1cnc2cnc3sc4c(=O)n(-c5ccc(Cl)cc5)cnc4c3c21			
	0.3	> 1000				2.4	COc1ccc(-n2cnc3c(sc4ncc5c(c43)NC[C@@H](C)O5)c2=O)cc1			

Structure (SMILES)	Activity [1] [%]	Ki [2] [nM]	IC50 [3] [nM]	AUC(0-t) at 6 h [4] [µM·h]	Tmax [5] [h]	Cmax [6] [nM]	IC50 [9] [nM]	Activity [7] [g]	MPE [8] [%]	ED50 [10] [mg/kg]
C[C@@H]1COc2cnc3sc4c(=O)n(-c5ccc(Cl)cc5)cnc4c3c2N1		9.1	> 1000				24.4			
C[C@H]1COc2cnc3sc4c(=O)n(-c5ccc(Cl)cc5)cnc4c3c2N1		0.5	> 1000							
